This experiment concerns the target T1, human ALK5 (kinase domain, ALK5 T204D) (Homo sapiens, UniProt P36897, T204D).
T1 construct: The kinase domain of human ALK5 (amino acids 200-503); made in house; host or cells: insect cells (baculovirus)
T1 sequence (P36897 200-503 T204D): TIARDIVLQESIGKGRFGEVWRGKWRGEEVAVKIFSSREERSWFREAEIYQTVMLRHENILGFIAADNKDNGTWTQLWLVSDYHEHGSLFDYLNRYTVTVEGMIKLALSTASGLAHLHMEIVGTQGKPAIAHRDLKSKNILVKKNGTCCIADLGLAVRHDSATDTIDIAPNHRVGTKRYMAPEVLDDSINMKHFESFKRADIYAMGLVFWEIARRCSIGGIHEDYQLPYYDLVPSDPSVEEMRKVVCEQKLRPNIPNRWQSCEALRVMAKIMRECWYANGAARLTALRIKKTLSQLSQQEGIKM
Briefly: ALK5 kinase assay ([33P] phosphate incorporation into casein). In kind it is biochemical. The conditions noted are these: casein substrate, 1 μM unlabelled ATP. How it is done:
The kinase activity of ALK5 is assessed by measuring radiolabelled phosphate [33P] incorporation in to the generic substrate, casein. The kinase domain of human ALK5 (amino acids 200-503) is fused to an N-terminal histidine tag. The kinase activity of ALK5 is rendered constitutive via point mutation at amino acid 204 (threonine to aspartate modification, ALK5 T204D) and the kinase construct is engineered to be expressed from a baculovirus expression construct in insect cells. The purified, recombinantly-expressed histidine-tagged ALK5 T204D protein is dissolved at 5.4 mg/ml in 50 mM Tris-HCl pH 8.0, 150 mM NaCl, 5 mM DTT. ALK5 T204D is dissolved to 2.5 μg/ml in assay buffer (Assay buffer: 20 mM Tris-HCl pH 7.4, 10 mM MgCl2, 2 mM MnCl2) on the day of use.
Test compounds and reference compounds are dissolved in assay buffer without DTT containing 5% (v/v) DMSO. Stock solutions of test and reference compounds are diluted in assay buffer with DTT (1.25 mM) containing 4.5% (v/v) DMSO. 10 μl of test or reference compound are added to the appropriate wells of 96 well U-bottomed plate. Total enzyme activity is determined by measuring ALK5 T204D activity in the absence of ALK5 kinase inhibitor reference compounds. Non-specific binding (NSB) is determined by measuring the activity of ALK5 T204D in the presence of ALK5 kinase inhibitor reference compounds. 10 μl of dephosphorylated casein stock solution (dephosphorylated casein is dissolved in ddH2O at 20 mg/ml) is added per well (200 μg/well final assay concentration). 20 μl of ALK5 T204D (2.5 μg/ml solution) is added per well (50 ng/well final assay concentration). The plates are left to incubate at room temperature for 10 minutes.
10 μl of ATP mix is added to the well to initiate the reaction (0.66 nM [^33P]ATP/1 μM unlabelled ATP/well final assay concentration). The ATP mix is prepared as follows, unlabelled ATP (3 mM) is dissolved in ddH2O and pH adjusted to 7.4. The stock concentration of [^33P]ATP is 10 μCi/μl. The appropriate volume of [^33P]ATP is added to unlabelled ATP solution such that the final assay concentration per well is 0.1 μCi. Following addition of the ATP mix, the plates are incubated at room temperature for 50 minutes. The kinase reaction is terminated by the addition of 50 μL Stop Buffer (20 mM Tris-HCl pH 7.4, 10 mM EDTA).
75 μl/well from the reaction plate is transferred to a Multiscreen-IP plate (MultiScreen-IP plates are prepared by added 50 μL of 70% (v/v) ethanol per well and incubated for 5 minutes at room temperature. The ethanol is removed by aspiration via a MultiScreen HTS Vaccum Manifold unit (Millipore, Cat no: MSVMHT500). The plates are washed twice by adding 200 μl/well ddH2O). The MultiScreen-IP plate is incubated at room temperature for 30 minutes to allowing binding of casein to the plate. The MultiScreen-IP plates are washed three times by adding 200 μl/well 100 mM phosphoric acid solution and the gasket is carefully removed from the back of the MultiScreen-IP plate and the plate dried in the oven for 30 minutes. The MultiScreen-IP plate is backsealed, 50 μL of Microscint™20 is added, then the plates are topsealed and radiolabelled casein detected and quantified on a TopCount™ plate-reader using the ^33P scintillation protocol.
Regarding `CCOc1cncc(-c2cc(-c3cccc(C)n3)nc3[nH]ccc23)c1` [Example 58, 4-(5-Ethoxy-pyridin-3-yl)-6-(6-methyl-pyridin-2-yl)-1H-pyrrolo[2,3-b]pyridine], the IC50 (in general, the point on the concentration scale where inhibition reaches its midpoint) worked out at 56 nM. With `Cc1cccc(-c2nc(-c3cncc(-c4ccccc4Cl)c3)c3cc[nH]c3n2)n1` [Example 33, 4-[5-(2-Chloro-phenyl)-pyridin-3-yl]-2-(6-methyl-pyridin-2-yl)-7H-pyrrolo[2,3-d]pyrimidine] the figure was 90 nM; with `Cc1cccc(-c2cc(-c3cncc(-c4cccc(CN)c4)c3)c3cc[nH]c3n2)n1` [Example 86, 3-{5-[6-(6-Methyl-pyridin-2-yl)-1H-pyrrolo[2,3-b]pyridin-4-yl]-pyridin-3-yl}-benzylamine], 8 nM. In turn, `Cc1cccc(-c2cc(-c3cncc(-c4ccc(CN5CCN(C(C)C)CC5)cc4)c3)c3cc[nH]c3n2)n1` [Example 137, 4-{5-[4-(4-Isopropyl-piperazin-1-ylmethyl)-phenyl]-pyridin-3-yl}-6-(6-methyl-pyridin-2-yl)-1H-pyrrolo[2,3-b]pyridine] showed an IC50 of 9 nM. Under `Cc1cccc(-c2nc(-c3cncc(-c4cccc(O)c4)c3)c3cc[nH]c3n2)n1` [Example 23, 3-{5-[2-(6-Methyl-pyridin-2-yl)-7H-pyrrolo[2,3-d]pyrimidin-4-yl]-pyridin-3-yl}-phenol] stands 14 nM. With `CC(=O)NCCCC(=O)Nc1cncc(-c2nc(-c3cccc(C)n3)nc3[nH]ccc23)c1` [Example 52, 4-Acetylamino-N-{5-[2-(6-methyl-pyridin-2-yl)-7H-pyrrolo[2,3-d]pyrimidin-4-yl]-pyridin-3-yl}-butyramide] the figure was 435 nM; with `Cc1cccc(-c2cc(-c3cncc(-c4cccc(CNCC(=O)O)c4)c3)c3cc[nH]c3n2)n1` [Example 130, (3-{5-[6-(6-Methyl-pyridin-2-yl)-1H-pyrrolo[2,3-b]pyridin-4-yl]-pyridin-3-yl}-benzylamino)-acetic acid], 11 nM.

`Cc1cccc(-c2nc(-c3cncc(-c4nnco4)c3)c3cc[nH]c3n2)n1` [Example 83, 2-(6-Methyl-pyridin-2-yl)-4-(5-[1,3,4]oxadiazol-2-yl-pyridin-3-yl)-7H-pyrrolo[2,3-d]pyrimidine] showed an IC50 of 557 nM. Under `Cc1cccc(-c2cc(-c3cncc(-c4cccc(CNCCO)c4)c3)c3cc[nH]c3n2)n1` [Example 132, 2-(3-{5-[6-(6-Methyl-pyridin-2-yl)-1H-pyrrolo[2,3-b]pyridin-4-yl]-pyridin-3-yl}-benzylamino)-ethanol] stands 5.3 nM; under `Cc1cccc(-c2cc(-c3cncc(OC(C)C)c3)c3cc[nH]c3n2)n1` [Example 64, 4-(5-Isopropoxy-pyridin-3-yl)-6-(6-methyl-pyridin-2-yl)-1H-pyrrolo[2,3-b]pyridine], 250 nM; under `Cc1cccc(-c2nc(-c3cccnc3)c3cc[nH]c3n2)n1` [Example 2, 2-(6-methyl-pyridin-2-yl)-4-pyridin-3-yl-7H-pyrrolo[2,3-d]pyrimidine], 380 nM. With `Cc1cccc(-c2cc(-c3cncc(-c4ccc(C(C)(C)N)cc4)c3)c3cc[nH]c3n2)n1` [Example 114, 1-Methyl-1-(4-{5-[6-(6-methyl-pyridin-2-yl)-1H-pyrrolo[2,3-b]pyridin-4-yl]-pyridin-3-yl}-phenyl)-ethylamine] the figure was 4.6 nM. For `Cc1cccc(-c2nc(-c3cncc(NC(=O)CCO)c3)c3cc[nH]c3n2)n1` [Example 54, 3-Hydroxy-N-{5-[2-(6-methyl-pyridin-2-yl)-7H-pyrrolo[2,3-d]pyrimidin-4-yl]-pyridin-3-yl}-propionamide], the IC50 came out at 119 nM. Under `Cc1cccc(-c2nc(-c3cncc(-c4cccc(N5CCCC5)c4)c3)c3cc[nH]c3n2)n1` [Example 18, 2-(6-Methyl-pyridin-2-yl)-4-[5-(3-pyrrolidin-1-yl-phenyl)-pyridin-3-yl]-7H-pyrrolo[2,3-d]pyrimidine] stands 172 nM. `CN1CCN(C(=O)c2ccc(-c3cncc(-c4nc(-c5ccccn5)nc5[nH]ccc45)c3)cc2)CC1` [Example 42, (4-Methyl-piperazin-1-yl)-{4-[5-(2-pyridin-2-yl-7H-pyrrolo[2,3-d]pyrimidin-4-yl)-pyridin-3-yl]-phenyl}-methanone] had an IC50 of 17 nM. With `CC(=O)N1CC=C(c2cncc(-c3nc(-c4cccc(C)n4)nc4[nH]ccc34)c2)CC1` [Example 103, 1-{5-[2-(6-Methyl-pyridin-2-yl)-7H-pyrrolo[2,3-d]pyrimidin-4-yl]-3′,6′-dihydro-2′H-[3,4′]bipyridinyl-1′-yl}-ethanone] the figure was 133 nM.

On to `Cc1cccc(-c2nc(-c3cncc(N)c3)c3cc[nH]c3n2)n1` [Example 95, 5-[2-(6-Methyl-pyridin-2-yl)-7H-pyrrolo[2,3-d]pyrimidin-4-yl]-pyridin-3-ylamine], for which the IC50 was 259 nM. With `Cc1cccc(-c2nc(-c3cncc(-c4ccc(F)cc4)c3)c3cc[nH]c3n2)n1` [Example 7, 4-[5-(4-Fluoro-phenyl)-pyridin-3-yl]-2-(6-methyl-pyridin-2-yl)-7H-pyrrolo[2,3-d]pyrimidine] the figure was 45 nM; with `Cc1cccc(-c2nc(-c3cncc(C4=CCN(C)CC4)c3)c3cc[nH]c3n2)n1` [Example 116, 1′-Methyl-5-[2-(6-methyl-pyridin-2-yl)-7H-pyrrolo[2,3-d]pyrimidin-4-yl]-1′,2′,3′,6′-tetrahydro-[3,4′]bipyridinyl], 532 nM; with `Cc1cccc(-c2cc(-c3cncc(-c4ccc(C(C)(C)N)cc4C)c3)c3cc[nH]c3n2)n1` [Example 164, 1-Methyl-1-(3-methyl-4-{5-[6-(6-methyl-pyridin-2-yl)-1H-pyrrolo[2,3-b]pyridin-4-yl]-pyridin-3-yl}-phenyl)-ethylamine], 6.3 nM. With `Cc1cccc(-c2cc(-c3cncc(-c4cnn(C)c4)c3)c3cc[nH]c3n2)n1` [Example 123, 4-[5-(1-Methyl-1H-pyrazol-4-yl)-pyridin-3-yl]-6-(6-methyl-pyridin-2-yl)-1H-pyrrolo[2,3-b]pyridine] the figure was 4.4 nM; with `Cc1cccc(-c2cc(-c3cncc(-c4ccc(CN5CC[C@H](N(C)C)C5)cc4)c3)c3cc[nH]c3n2)n1` [Example 110, Dimethyl-[(S)-1-(4-{5-[6-(6-methyl-pyridin-2-yl)-1H-pyrrolo[2,3-b]pyridin-4-yl]-pyridin-3-yl}-benzyl)-pyrrolidin-3-yl]-amine], 20 nM.

Compound `CCNC(=O)c1cncc(-c2nc(-c3cccc(C)n3)nc3[nH]ccc23)c1` [Example 11, N-Ethyl-5-[2-(6-methyl-pyridin-2-yl)-7H-pyrrolo[2,3-d]pyrimidin-4-yl]-nicotinamide] displayed an IC50 of 367 nM. With `Cc1cccc(-c2cc(-c3cncc(N4CCN(C)CC4)c3)c3cc[nH]c3n2)n1` [Example 57, 4-[5-(4-Methyl-piperazin-1-yl)-pyridin-3-yl]-6-(6-methyl-pyridin-2-yl)-1H-pyrrolo[2,3-b]pyridine] the figure was 271 nM; with `Cc1cccc(-c2cc(-c3cncc(NC(=O)CCN(C)C)c3)c3cc[nH]c3n2)n1` [Example 62, 3-Dimethylamino-N-{5-[6-(6-methyl-pyridin-2-yl)-1H-pyrrolo[2,3-b]pyridin-4-yl]-pyridin-3-yl}-propionamide], 40 nM.
